Measured values from patent US10028992B2, “Methods of treating muscular dystrophy” (BOARD OF REGENTS OF THE NEVADA SYSTEM OF HIGHER EDUCATION …, priority 2012, dated 2018).

System: α7 integrin promoter
Assay: muscle cell-based assay: α7βgal+/− myoblasts/myotubes, LacZ reporter, β-galactosidase cleavage of FDG
Set-up: species or system mouse; Results in α7+/− β-galactosidase assay: scale not given here
Conditions: for Results in a α7+/− β-galactosidase assay, Myotubes, 0.5 uM: compound at 0.5 uM; for Results in a α7+/− β-galactosidase assay, Myotubes, 1 uM: compound at 1 uM; for Results in a α7+/− β-galactosidase assay, Myotubes, 5 uM: compound at 5 uM; for Results in a α7+/− β-galactosidase assay, Myotubes, 10 uM: compound at 10 uM; for Results in a α7+/− β-galactosidase assay, Myotubes, 20 uM: compound at 20 uM; for Results in a α7+/− β-galactosidase assay, Myotubes, 40 uM: compound at 40 uM; for Fit Curve Class: key not given; for EC50: given as log AC50 (negative values), read-out: Fit LogAC50 (converted)
Description: An α7 integrin null mouse was produced in which exon 1 of the gene encoding the α7 integrin was replaced by the LacZ reporter. In these mice, all the transcriptional regulatory elements of the α7 integrin promoter were retained, allowing β-galactosidase to report expression of 7 integrin. A primary myoblast cell line (designated α7βgal^+/−) isolated from 10 day old α7^+/− pups were analyzed for the ability of β-galactosidase to report α7 integrin expression. α7βgal^+/− myoblasts were differentiated and subjected to X-gal staining and western analysis (FIGS. 1A and 1B).
The activity of the α7 integrin promoter was measured by β-galactosidase cleavage of the non-fluorescent compound fluorescein di-β-D-galactopyranoside (FDG) to fluorescein. This assay was used to screen compound libraries to identify molecules that up-regulate α7 integrin expression in muscle.
Also evaluated was the effect of various isoforms of laminin and the ligand for α7β1 integrin on integrin expression. Positive hits were subjected to dose-response analysis, western analysis and a myostatin counterscreen (a negative regulator of muscle growth).

[1] = curve fit, activity at zero concentration

Compound: COc1ccccc1/C=C1\C(=O)Nc2ccccc21 [drawing 492]
- Results in a α7+/− β-galactosidase assay, Myotubes, 0.5 uM (Myotubes): −0.03334
- Results in a α7+/− β-galactosidase assay, Myotubes, 1 uM (Myotubes): 0.08625
- Results in a α7+/− β-galactosidase assay, Myotubes, 5 uM (Myotubes): −0.2626
- Results in a α7+/− β-galactosidase assay, Myotubes, 10 uM (Myotubes): 0.09022
- Results in a α7+/− β-galactosidase assay, Myotubes, 20 uM (Myotubes): −0.05273
- Results in a α7+/− β-galactosidase assay, Myotubes, 40 uM (Myotubes): 0.2894

Compound: CCOC(=O)c1sc(=N)n(-c2ccc(OC)cc2)c1C [drawing 503]
- Results in a α7+/− β-galactosidase assay, Myotubes, 0.5 uM (Myotubes): 0.01467
- Results in a α7+/− β-galactosidase assay, Myotubes, 1 uM (Myotubes): −0.0655
- Results in a α7+/− β-galactosidase assay, Myotubes, 5 uM (Myotubes): −0.3446
- Results in a α7+/− β-galactosidase assay, Myotubes, 10 uM (Myotubes): −0.2817
- Results in a α7+/− β-galactosidase assay, Myotubes, 20 uM (Myotubes): −0.1985
- Results in a α7+/− β-galactosidase assay, Myotubes, 40 uM (Myotubes): −0.1785

Compound: O=c1[nH]c(CN2CCCCC2)cc2c1C1(CCCCC1)Cc1ccccc1-2 [drawing 357]
- Results in a α7+/− β-galactosidase assay, Myotubes, 0.5 uM (Myotubes): 0.1087
- Results in a α7+/− β-galactosidase assay, Myotubes, 1 uM (Myotubes): 0.1264
- Results in a α7+/− β-galactosidase assay, Myotubes, 5 uM (Myotubes): −0.08739
- Results in a α7+/− β-galactosidase assay, Myotubes, 10 uM (Myotubes): −0.0441
- Results in a α7+/− β-galactosidase assay, Myotubes, 20 uM (Myotubes): −0.09507
- Results in a α7+/− β-galactosidase assay, Myotubes, 40 uM (Myotubes): −0.1888

Compound: CCCCNC(=O)CSc1nnc(Cc2ccc(Cl)c(Cl)c2)c(O)n1 [Compound 34]
- AC50 (Mus musculus, Table 12, log of AC50, given with negative sign, unit of AC50 not given, read-out: Fit Log AC50 (converted)): 1.41 µM
- Emax (Mus musculus, read-out: Max Response [%]): 75.4%
- Fit HillSlope (Table 12, curve fit): 1.8851
- Fit Zero Activity [%] (Table 12, fitted activity at zero concentration): 5.9015%
- Fit Curve Class (Table 12): 1.2
- Score (Table 12 Compound data, concentration-response curve fit): 65

Compound: CCOC(=O)C1CCCN(C(=O)CNS(=O)(=O)c2ccc(Br)s2)C1 (stereo not shown) [drawing 708]
- Result in α7+/− β-galactosidase assay (Myoblasts, 0.5 uM): −0.01823
- Result in α7+/− β-galactosidase assay (Myoblasts, 1 uM): 0.07424
- Result in α7+/− β-galactosidase assay (Myoblasts, 5 uM): −0.1417
- Result in α7+/− β-galactosidase assay (Myoblasts, 10 uM): −0.1278
- Result in α7+/− β-galactosidase assay (Myoblasts, 20 uM): −0.1459
- Result in α7+/− β-galactosidase assay (Myoblasts, 40 uM): −0.2189

Compound: O=C(NCCc1ccc(F)cc1)N[C@@H](Cc1ccccc1)C(=O)O [Compound 165]
- EC50 (Mus musculus): 11.2 µM
- Score (Table 12 compound data): 42
- Fit Curve Class (curve class number): 2.1
- Fit HillSlope (curve fit): 4.5045
- Fit Zero Activity [%] [1]: −20.12%

Compound: COc1ccc2c(c1)C(=C(C#N)C#N)C(=O)N2CCc1ccccc1 [drawing 314]
- Results in a α7+/− β-galactosidase assay, Myotubes, 0.5 uM (Myotubes): 0.006429
- Results in a α7+/− β-galactosidase assay, Myotubes, 1 uM (Myotubes): 0.1052
- Results in a α7+/− β-galactosidase assay, Myotubes, 5 uM (Myotubes): 0.04228
- Results in a α7+/− β-galactosidase assay, Myotubes, 10 uM (Myotubes): −0.09235
- Results in a α7+/− β-galactosidase assay, Myotubes, 20 uM (Myotubes): −0.8051
- Results in a α7+/− β-galactosidase assay, Myotubes, 40 uM (Myotubes): −0.734

Compound: Cc1nnc(NC(=O)CSc2nnc(CCNC(=O)c3ccccc3F)n2C)s1 [Compound 147]
- EC50 (Mus musculus): 11.2 µM
- Score (Table 12 compound data): 42
- Fit Curve Class (curve class number): 2.1
- Fit HillSlope (curve fit): 2.0937
- Fit Zero Activity [%] [1]: 1.0531%

Compound: CC1(C)Cc2c(c(N3CCOCC3)nc3sc(C(=O)Nc4ccccc4)c(N)c23)CO1 [drawing 538]
- Results in α7+/− β-galactosidase assay (Myoblasts, 0.5 uM): 0.2085
- Results in α7+/− β-galactosidase assay (Myoblasts, 1 uM): 0.2916
- Results in α7+/− β-galactosidase assay (Myoblasts, 5 uM): −0.3961
- Results in α7+/− β-galactosidase assay (Myoblasts, 10 uM): −0.7131
- Results in α7+/− β-galactosidase assay (Myoblasts, 20 uM): −0.4322
- Results in α7+/− β-galactosidase assay (Myoblasts, 40 uM): −0.3536

Compound: O=C(NCc1ccccc1)C(c1c(F)cccc1Cl)N(C(=O)c1csnn1)C1CC1 (stereo not shown) [drawing 430]
- Results in a α7+/− β-galactosidase assay, Myotubes, 0.5 uM (Myotubes): 0.2226
- Results in a α7+/− β-galactosidase assay, Myotubes, 1 uM (Myotubes): −0.02073
- Results in a α7+/− β-galactosidase assay, Myotubes, 5 uM (Myotubes): −0.2107
- Results in a α7+/− β-galactosidase assay, Myotubes, 10 uM (Myotubes): −0.07084
- Results in a α7+/− β-galactosidase assay, Myotubes, 20 uM (Myotubes): −0.182
- Results in a α7+/− β-galactosidase assay, Myotubes, 40 uM (Myotubes): −0.2594

Compound: COC(=O)c1ccccc1CC(=O)CSc1nc(O)c(-c2ccccc2)c(O)n1 [drawing 666]
- Results in α7+/− β-galactosidase assay (Myoblasts, 0.5 uM): 0.06548
- Results in α7+/− β-galactosidase assay (Myoblasts, 1 uM): 0.01829
- Results in α7+/− β-galactosidase assay (Myoblasts, 5 uM): 0.06613
- Results in α7+/− β-galactosidase assay (Myoblasts, 10 uM): 0.1141
- Results in α7+/− β-galactosidase assay (Myoblasts, 20 uM): 0.0713
- Results in α7+/− β-galactosidase assay (Myoblasts, 40 uM): 0.08837

Compound: O=C1Nc2ccccc2/C1=C1/Nc2ccccc2/C1=N\O [drawing 518]
- Results in α7+/− β-galactosidase assay (Myotubes, 0.5 uM): 0.09617
- Results in α7+/− β-galactosidase assay (Myotubes, 1 uM): 0.05181
- Results in α7+/− β-galactosidase assay (Myotubes, 5 uM): −0.32
- Results in α7+/− β-galactosidase assay (Myotubes, 10 uM): −0.625
- Results in α7+/− β-galactosidase assay (Myotubes, 20 uM): −0.3346
- Results in α7+/− β-galactosidase assay (Myotubes, 40 uM): −0.5024

Compound: COc1ccccc1C(=O)Nc1ccnn1C1CCN(C(=O)c2ccoc2)CC1 [drawing 343]
- Results in a α7+/− β-galactosidase assay, Myotubes, 0.5 uM (Myotubes): 0.01341
- Results in a α7+/− β-galactosidase assay, Myotubes, 1 uM (Myotubes): −0.07814
- Results in a α7+/− β-galactosidase assay, Myotubes, 5 uM (Myotubes): 0.06946
- Results in a α7+/− β-galactosidase assay, Myotubes, 10 uM (Myotubes): 0.05194
- Results in a α7+/− β-galactosidase assay, Myotubes, 20 uM (Myotubes): −0.08844
- Results in a α7+/− β-galactosidase assay, Myotubes, 40 uM (Myotubes): −0.04958
